Assay results published in US20100331189A1, “Plant Growth Promoter Utilizing Potato Cyst Nematode” (TOKAI UNIVERSITY EDUCATIONAL SYSTEM, priority 2008, published 2010).

Tests used:
[1] = Polarity and solubility in water; assay type: physicochemical; details: research conducted by the inventors
Description: Thus, the inventors of the present invention have focused on an ecological method. The ecological method is an indirect method in which the eggs of PCNs are forcedly hatched in some way, and then the hatched larvae are made to starve to death or destroyed using a typical agricultural chemical, which results in the prevention of the damage caused by the PCNs. It has been known for a long time that PCNs hatch when exposed to a substance secreted from the host plants, and there has been conducted a study for identifying a hatching-activating substance and isolating it from the secretory substance. Patent Document 1 discloses Solanoeclepin A as the hatching-activating substance.

beets [2] = assay: Beet cultivation after treatments of farmland sections (2008); assay type: in vivo; details: for Average weight / Weight of the largest beet: sprayed once before planting; for growth promotion / enlargement of a beet (in words): results of beet cultivation of Table 8
Protocol: [table] The beets were cultivated under the conditions that the width of a ridge was 69 cm and the distance between beets was 30 cm. […] Then the beets were cultivated until Oct. 8, 2008 and harvested. After the stems and leaves of the harvested beets were removed, the weight of the beets was measured.

PCN = PCN density in treated farmland sections (2008); assay type: in vivo, potato cyst nematodes
beets [3] = assay: Beet cultivation in PCN-contaminated farmland after spraying around the roots (2007); assay type: in vivo; details: cultivated 112 days; for Average weight of three beets other than the largest beet / Weight of the largest beet: PCN-contaminated farmland; for Sugar content: saccharimeter
Protocol: A farmland (Fujimi, Kutchan-cho, Hokkaido) contaminated by PCNs was examined in advance.
In that farmland, about […] beets per 1 m^2 were cultivated under the conditions that the width of a ridge was 69 cm and the distance between beets was 30 cm. […] The amount sprayed was changed to three levels, 1.8, 5.5, and 9.0 (g/m^2), and each chemical agent having the above-described amount was dissolved in 5 liters of water to obtain a spraying solution. Subsequently, the beets were cultivated for 112 days and the grown beets were harvested. The weight (kg) of the largest beet, the average weight (kg) of three beets other than the largest beet, and the sugar content (%) were measured. […] The sugar content (%) was measured with a saccharimeter (MASTER-M model 2313 available from ATAGO Co., Ltd.). […]
The mixed chemical agent contained 6% by mass of coconut oil fatty acid diethanolamide and 0.6% by mass of polyethylene glycol.

PCNs = assay: PCN control at a site where a potato had been cultivated: nematode density after spraying; assay type: in vivo, potato cyst nematodes; details: sprayed amount 9.0 g/m^2; soil had 2000 to 5000 PCNs per 20 g
Description: After the chemical agents were sprayed, all the cysts in 20 g of air-dried soil were gathered and the total number of eggs and second-generation larvae in the cysts was obtained.

[4] = tested on: eggs of potato cyst nematodes; assay: Accelerated hatching effect of aqueous fatty acid dialkanolamide solution; assay type: in vivo; details: 1000-fold diluted aqueous solution; water 5.0%
Protocol: The accelerated hatching effect of an aqueous fatty acid dialkanolamide solution for the eggs of potato cyst nematodes was measured. […] It is believed that the fatty acid dialkanolamide has a function of breaking the eggshell of PCNs and thus the eggs of PCNs are forcedly hatched.

[5] = 260 mg in 100 ml of water per single beet
[6] = 260 mg in 100 ml of water per two beets

SMILES	growth promotion / enlargement of a beet (in words) (beets [2])	Average weight of three beets other than the largest beet (beets [3]; sprayed amount 1.8 g/m^2, once) [kg]	Weight of the largest beet (beets [3]; sprayed amount 1.8 g/m^2, once) [kg]	Sugar content (beets [3]; sprayed amount 1.8 g/m^2, once) [%]	Average weight of three beets other than the largest beet (beets [3]; sprayed amount 5.5 g/m^2, once) [kg]	Weight of the largest beet (beets [3]; sprayed amount 5.5 g/m^2, once) [kg]	Sugar content (beets [3]; sprayed amount 5.5 g/m^2, once) [%]	Average weight of three beets other than the largest beet (beets [3]; sprayed amount 9.0 g/m^2, once) [kg]	Weight of the largest beet (beets [3]; sprayed amount 9.0 g/m^2, once) [kg]	Sugar content (beets [3]; sprayed amount 9.0 g/m^2, once) [%]	other results
COC1=C2C(C)(C)[C@H]3O[C@@]2(CC3=O)[C@@H](O)C2=C(C1=O)[C@@]13C(=O)[C@@]([C@@H]4C[C@H]4C(=O)O)(C[C@@H]1O)[C@]3(C)CC2 [Solanoeclepin A]											solubility in water [1]: poor solubility in water
CCCCCC(=O)N(CCO)CCO [Example 15, hexanoic acid diethanolamide]	achieves the enlargement of a beet										Average weight (beets [2]; [5]): 1.55 kg; Weight of the largest beet (beets [2]; [5]): 2.10 kg; PCN density (PCN; 260 mg in 100 ml of water sprayed around the area of a single beet): 600 /20 g of air-dried soil; effect on PCN density (in words) (PCN; section 2-1 compared with section 1-1): decreases PCN density
CC(=O)N(CCO)CCO [Example 1, acetic acid diethanolamide]		1.63	2.85	19.80	1.68	2.53	20.10	1.40	1.90	19.90	
CCCCCCCCCC(=O)NCCO [compound 14, decanoic acid monoethanolamide]	poor effect of growth promotion										Average weight (beets [2]; [6]): 1.10 kg; Weight of the largest beet (beets [2]; [6]): 1.80 kg
CCCCCCCCCCCCCCCCCC(=O)N(CCO)CCO [Example 7, octadecanoic acid diethanolamide]		1.48	2.05	20.20	1.65	1.95	20.20	1.85	2.30	21.00	Nematode density (total number of eggs and second-generation larvae in the cysts) (PCNs): 540 /20 g of air-dried soil
CCCCCCCCCC(=O)N(CCO)CCO [Example 4, decanoic acid diethanolamide]		1.86	2.20	21.20	1.92	2.35	20.00	1.62	2.15	23.40	hatching ratio [4]: 23.8%; Nematode density (total number of eggs and second-generation larvae in the cysts) (PCNs): 765 /20 g of air-dried soil
CC(=O)NCCO [compound 13, acetic acid monoethanolamide]	poor effect of growth promotion										Average weight (beets [2]; [6]): 1.40 kg; Weight of the largest beet (beets [2]; [6]): 1.40 kg
